Data from patent EP0908457B1, “3-(1,2-benzisothiazol- and isoxazol-5-Y1)-2,4(1H,3H)-pyrimidinedione or thione and 3-(1,2-benzisothiazol- and isoxazol-5-y1)-4(3H)-pyrimidinone or thione herbicidal agents” (BASF AKTIENGESELLSCHAFT, priority 1997, dated 1999).

How the values were obtained:
[1] = test system: Echinochloa oryzoides (Ard.) Fritsch.; experiment: Preemergence weed control under flooded paddy conditions, ECHORC (Watergrass (Calif.)); type: in vivo; details: preemergence, flooded paddy, rated three to four weeks after treatment; also: meaning of each grade not given here
[2] = test system: Echinochloa oryzoides (Ard.) Fritsch.; experiment: Postemergence weed control under flooded paddy conditions, ECHORC (Watergrass (Calif.)); type: in vivo; details: rated three to four weeks after treatment
[3] = test system: Oryza sativa, (L.) Tebonnet; experiment: Rice tolerance to post-transplant applications under flooded paddy conditions (Example 188), ORYSAT (Rice, Tebonnet); details: rated three to four weeks after treatment
Sagittaria pygmaea, L. [4] = experiment: Preemergence weed control under flooded paddy conditions, SAGPY (Arrowhead (Pygmaea)); type: in vivo; details: preemergence, flooded paddy, rated three to four weeks after treatment; also: meaning of each grade not given here
Cyperus iria [5] = experiment: Preemergence weed control under flooded paddy conditions, CYPIR (Rice Flatsedge); type: in vivo; details: preemergence, flooded paddy, rated three to four weeks after treatment; also: meaning of each grade not given here
[6] = test system: Cyperus serotinus, Rottb.; experiment: Preemergence weed control under flooded paddy conditions, CYPSE (Flatsedge); type: in vivo; details: preemergence, rated three to four weeks after treatment; also: meaning of each grade not given here
[7] = test system: Oryza sativa, (L.) Tebonnet; experiment: Rice tolerance to post-transplant applications under flooded paddy conditions (Example 187), ORYSAT (Rice, Tebonnet); details: rated three to four weeks after treatment
[8] = test system: Cyperus serotinus, Rottb.; experiment: Postemergence weed control under flooded paddy conditions, CYPSE (Flatsedge); type: in vivo; details: rated three to four weeks after treatment
[9] = test system: Monochoria vaginalis, Presl.; experiment: Postemergence weed control under flooded paddy conditions, MOOVA (Monochoria); type: in vivo; details: rated three to four weeks after treatment
[10] = test system: Monochoria vaginalis, Presl.; experiment: Preemergence weed control under flooded paddy conditions, MOOVA (Monochoria); type: in vivo; details: preemergence, flooded paddy, rated three to four weeks after treatment; also: meaning of each grade not given here
Cyperus iria [11] = experiment: Postemergence weed control under flooded paddy conditions, CYPIR (Rice Flatsedge); type: in vivo; details: rated three to four weeks after treatment
Sagittaria pygmaea, L. [12] = experiment: Postemergence weed control under flooded paddy conditions, SAGPY (Arrowhead (Pygmaea)); type: in vivo; details: rated three to four weeks after treatment

COC(=O)COc1cc(C)c(C)cc1-c1nsc2ccc(-n3c(=O)cc(C(F)(F)F)n(C)c3=O)cc12 [Example 12, Methyl {{6-{5-[3,6-dihydro-3-methyl-4-(trifluoromethyl)-2,6-dioxo-1(2H)-pyrimidinyl]-1,2-benzisothiazol-3-yl}-3,4-xylyl}oxy}acetate]
0.0: herbicidal effect rating, ECHORC ([2]; Rate 0.0313 kg/ha) | herbicidal effect rating, SAGPY (Sagittaria pygmaea, L. [4]; 0.0313 kg/ha) | herbicidal effect rating, CYPSE ([8]; Rate 0.0313 kg/ha) | herbicidal effect rating, CYPSE ([8]; Rate 0.0625 kg/ha) | herbicidal effect rating, SAGPY (Sagittaria pygmaea, L. [12]; Rate 0.0313 kg/ha) | herbicidal effect rating, SAGPY (Sagittaria pygmaea, L. [12]; Rate 0.0625 kg/ha) | herbicidal effect rating, SAGPY (Sagittaria pygmaea, L. [12]; Rate 0.1250 kg/ha)
6.0: herbicidal effect rating, ECHORC ([2]; Rate 0.1250 kg/ha) | herbicidal effect rating, CYPSE ([6]; 0.0313 kg/ha)
2.0: herbicidal effect rating, ECHORC ([2]; Rate 0.0625 kg/ha) | herbicidal effect rating, SAGPY (Sagittaria pygmaea, L. [4]; 0.0625 kg/ha) | herbicidal effect rating, CYPSE ([8]; Rate 0.5000 kg/ha)
9.0: herbicidal effect rating, ECHORC ([1]; 0.0313 kg/ha) | herbicidal effect rating, ECHORC ([1]; 0.0625 kg/ha) | herbicidal effect rating, ECHORC ([1]; 0.1250 kg/ha) | herbicidal effect rating, ECHORC ([1]; 0.2500 kg/ha) | herbicidal effect rating, ECHORC ([1]; 0.5000 kg/ha) | herbicidal effect rating, ECHORC ([2]; Rate 0.2500 kg/ha) | herbicidal effect rating, ECHORC ([2]; Rate 0.5000 kg/ha) | herbicidal effect rating, SAGPY (Sagittaria pygmaea, L. [4]; 0.2500 kg/ha) | herbicidal effect rating, SAGPY (Sagittaria pygmaea, L. [4]; 0.5000 kg/ha) | herbicidal effect rating, CYPIR (Cyperus iria [5]; 0.0313 kg/ha) | herbicidal effect rating, CYPIR (Cyperus iria [5]; 0.0625 kg/ha) | herbicidal effect rating, CYPIR (Cyperus iria [5]; 0.1250 kg/ha) | herbicidal effect rating, CYPIR (Cyperus iria [5]; 0.2500 kg/ha) | herbicidal effect rating, CYPIR (Cyperus iria [5]; 0.5000 kg/ha) | herbicidal effect rating, ORYSAT (rice tolerance) ([7]; 0.5000 kg/ha) | herbicidal effect rating, MOOVA ([9]; Rate 0.0313 kg/ha) | herbicidal effect rating, MOOVA ([9]; Rate 0.0625 kg/ha) | herbicidal effect rating, MOOVA ([9]; Rate 0.1250 kg/ha) | herbicidal effect rating, MOOVA ([9]; Rate 0.2500 kg/ha) | herbicidal effect rating, MOOVA ([9]; Rate 0.5000 kg/ha) | herbicidal effect rating, MOOVA ([10]; 0.0313 kg/ha) | herbicidal effect rating, MOOVA ([10]; 0.0625 kg/ha) | herbicidal effect rating, MOOVA ([10]; 0.1250 kg/ha) | herbicidal effect rating, MOOVA ([10]; 0.2500 kg/ha) | herbicidal effect rating, MOOVA ([10]; 0.5000 kg/ha) | herbicidal effect rating, CYPIR (Cyperus iria [11]; Rate 0.0313 kg/ha) | herbicidal effect rating, CYPIR (Cyperus iria [11]; Rate 0.0625 kg/ha) | herbicidal effect rating, CYPIR (Cyperus iria [11]; Rate 0.1250 kg/ha) | herbicidal effect rating, CYPIR (Cyperus iria [11]; Rate 0.2500 kg/ha) | herbicidal effect rating, CYPIR (Cyperus iria [11]; Rate 0.5000 kg/ha) | herbicidal effect rating, SAGPY (Sagittaria pygmaea, L. [12]; Rate 0.5000 kg/ha)
7.0: herbicidal effect rating, ORYSAT (rice tolerance) ([3]; Rate 0.1250 kg/ha) | herbicidal effect rating, ORYSAT (rice tolerance) ([3]; Rate 0.2500 kg/ha) | herbicidal effect rating, ORYSAT (rice tolerance) ([3]; Rate 0.5000 kg/ha) | herbicidal effect rating, CYPSE ([6]; 0.0625 kg/ha) | herbicidal effect rating, CYPSE ([6]; 0.2500 kg/ha) | herbicidal effect rating, CYPSE ([6]; 0.5000 kg/ha) | herbicidal effect rating, ORYSAT (rice tolerance) ([7]; 0.0625 kg/ha) | herbicidal effect rating, ORYSAT (rice tolerance) ([7]; 0.1250 kg/ha)
8.0: herbicidal effect rating, CYPSE ([6]; 0.1250 kg/ha) | herbicidal effect rating, ORYSAT (rice tolerance) ([7]; 0.2500 kg/ha)
4.0: herbicidal effect rating, ORYSAT (rice tolerance) ([3]; Rate 0.0313 kg/ha) | herbicidal effect rating, ORYSAT (rice tolerance) ([3]; Rate 0.0625 kg/ha) | herbicidal effect rating, SAGPY (Sagittaria pygmaea, L. [4]; 0.1250 kg/ha) | herbicidal effect rating, ORYSAT (rice tolerance) ([7]; 0.0313 kg/ha) | herbicidal effect rating, SAGPY (Sagittaria pygmaea, L. [12]; Rate 0.2500 kg/ha)
